In patent publication US9132103B2, “Disinfecting agent comprising eugenol, terpineol and thymol” (Conopco, Inc., priority 2009, dated 2015):

System: E. coli ATCC 10536
Assay: Bacterial kill after 15 seconds of contact (viable E. coli count by neutralization, serial dilution and plating)
Type: cell-based
Conditions: log10 of viable E. coli remaining after 15 seconds of contact; about 10^7 cells; water carrier; Table 2
Protocol: About 10^7 bacterial cells (E. coli ATCC 10536) were taken in a test tube and contacted with various compositions for a period of 15 seconds. Bacteria were taken out after 15 seconds of contact and presence of viable cells was determined by neutralization of the antimicrobial, serial dilution and plating on agar plates. The data is presented in Table-1 as log (Viable E. Coli) which is the log10 of the number of viable E. coli remaining after 15 seconds of contact. Thus if 10^4 remained, log (Viable E. coli) is 4.
The data in Table-1 is an average result of four experiments.
Various compositions as shown in Table-2 were prepared using the same procedure as used for examples 1 to 3 and the antibacterial efficacy was evaluated using the same procedure as used to evaluate Examples 1 to 3. The data on antibacterial efficacy is represented in Table-2.
Compositions as summarized in Table-3 were prepared using a similar procedure as used for Examples 1 to 3 and the antibacterial efficacy was evaluated using a procedure similar to that used for Examples 1 to 3.
The various compositions were diluted with water in a ratio of composition:water of 1:400 and then tested for antibacterial efficacy. The procedure used was similar to that used for Examples 1 to 3.
Soap bar compositions were prepared as per conventional procedure for preparing milled and plodded soap bars. […]

Cc1ccc(C(C)C)c(O)c1 [Example 6, Thymol]
Log (Viable E. coli): 6.5

Terpineol [Example 7]
Log (Viable E. coli): 6.5
